Laboratory results: the supplement of paper PMC10307832

Assays:
Assay in all cases: relative viability (nuclei count vs DMSO), 5 days (fraction); higher = more cells survive
SGI-1776 + Bortezomib = compound: CN1CCC(CNc2ccc3ncc(-c4cccc(OC(F)(F)F)c4)n3n2)CC1 [SGI-1776] + CC(C)C[C@H](NC(=O)[C@H](Cc1ccccc1)NC(=O)c1cnccn1)B(O)O [Bortezomib] (partner 0.002 µM)
Summary of the method: (§1)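 Each reported value is a median over duplicate plates. It expresses relative viability: treated-well nuclei count divided by vehicle-well nuclei count. Lung cancer cell lines in 1536-well plates were dosed by pin tool a day after seeding, alone with one drug or with a fixed anchor-drug dose plus five library-drug doses (not always all listed) in √10 steps, and nuclei were counted after 5 days.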

SGI-1776 + Tozasertib = compound: CN1CCC(CNc2ccc3ncc(-c4cccc(OC(F)(F)F)c4)n3n2)CC1 [SGI-1776] + Cc1cc(Nc2cc(N3CCN(C)CC3)nc(Sc3ccc(NC(=O)C4CC4)cc3)n2)n[nH]1 [Tozasertib] (partner 0.1 µM)
Summary of the method: as §1

Entinostat + Navitoclax = compound: Nc1ccccc1NC(=O)c1ccc(CNC(=O)OCc2cccnc2)cc1 [Entinostat] + CC1(C)CCC(c2ccc(Cl)cc2)=C(CN2CCN(c3ccc(C(=O)NS(=O)(=O)c4ccc(N[C@H](CCN5CCOCC5)CSc5ccccc5)c(S(=O)(=O)C(F)(F)F)c4)cc3)CC2)C1 [Navitoclax] (partner 0.5 µM)
Summary of the method: as §1

Entinostat + Pemetrexed = compound: Nc1ccccc1NC(=O)c1ccc(CNC(=O)OCc2cccnc2)cc1 [Entinostat] + Nc1nc2[nH]cc(CCc3ccc(C(=O)N[C@@H](CCC(=O)O)C(=O)O)cc3)c2c(=O)[nH]1 [Pemetrexed] (partner 0.2 µM)
Summary of the method: as §1

Cell Line | relative viability (SGI-1776 + Bortezomib; first compound 0.08 µM) | relative viability (SGI-1776 + Bortezomib; first compound 0.8 µM) | relative viability (SGI-1776 + Bortezomib; first compound 2.53 µM) | relative viability (SGI-1776 + Bortezomib; first compound 8 µM) | relative viability (SGI-1776 + Tozasertib; first compound 0.08 µM) | relative viability (SGI-1776 + Tozasertib; first compound 0.8 µM) | relative viability (SGI-1776 + Tozasertib; first compound 2.53 µM) | relative viability (SGI-1776 + Tozasertib; first compound 8 µM) | relative viability (Entinostat + Navitoclax; first compound 0.02 µM) | relative viability (Entinostat + Navitoclax; first compound 0.06325 µM) | relative viability (Entinostat + Navitoclax; first compound 0.2 µM) | relative viability (Entinostat + Navitoclax; first compound 0.6325 µM) | relative viability (Entinostat + Navitoclax; first compound 2 µM) | relative viability (Entinostat + Pemetrexed; first compound 0.02 µM) | relative viability (Entinostat + Pemetrexed; first compound 0.06325 µM) | relative viability (Entinostat + Pemetrexed; first compound 0.2 µM) | relative viability (Entinostat + Pemetrexed; first compound 0.6325 µM) | relative viability (Entinostat + Pemetrexed; first compound 2 µM)
NCI-H1915 | 1.01 | 0.985 | 0.932 | 0.935 | 0.456 | 0.418 | 0.33 | 0.198 | 0.809 | 0.716 | 0.813 | 0.613 | 0.283 | 0.417 | 0.536 | 0.475 | 0.403 | 0.188
NCI-H1299 | 1.02 | 1.04 | 1.02 | 1.04 | – | – | – | – | 1.05 | 1.01 | 1.05 | 0.936 | 0.763 | – | – | – | – | –
HCC-827 | 1.11 | 0.984 | 1.05 | 1.04 | 0.448 | 0.369 | 0.422 | 0.359 | 1.03 | 0.93 | 0.812 | 0.595 | 0.386 | 0.268 | 0.265 | 0.227 | 0.229 | 0.187
EMC-BAC-2 | 1.06 | 1.01 | 1.1 | 1.04 | 0.285 | 0.257 | 0.212 | 0.224 | 1.21 | 1.15 | 1.25 | 0.968 | 0.642 | 0.434 | 0.432 | 0.416 | 0.361 | 0.341
NCI-H596 | 0.924 | 1.08 | 0.95 | 0.973 | 1.07 | 1.04 | 0.792 | 0.577 | 0.923 | 0.962 | 0.861 | 0.8 | 0.581 | 0.499 | 0.514 | 0.528 | 0.439 | 0.446
NCI-H1792 | 0.94 | 0.941 | 0.977 | 1.01 | – | – | – | – | 0.729 | 0.674 | 0.576 | 0.535 | 0.222 | 0.844 | 0.765 | 0.896 | 0.374 | 0.191
NCI-H2009 | 1.03 | 1.02 | 0.991 | 0.733 | 0.646 | 0.543 | 0.449 | 0.387 | 1.21 | 1.19 | 1.13 | 0.816 | 0.52 | 0.949 | 0.965 | 0.963 | 0.84 | 0.619
NCI-H2347 | 1.04 | 0.961 | 1.15 | 0.897 | 0.491 | 0.579 | 0.418 | 0.279 | 0.839 | 0.746 | 0.514 | 0.19 | 0.227 | 0.442 | 0.447 | 0.339 | 0.369 | 0.341
SW 900 | – | – | – | – | 0.693 | 0.608 | 0.467 | 0.222 | – | – | – | – | – | 0.529 | 0.51 | 0.448 | 0.489 | 0.43
NCI-H1563 | 0.934 | 0.849 | 0.847 | 0.692 | – | – | – | – | – | – | – | – | – | 0.77 | 0.906 | 0.837 | 0.826 | 0.679
SK-MES-1 | – | – | – | – | 0.964 | 0.35 | 0.154 | 0.133 | 1.2 | 1.21 | 1.24 | 1.17 | 0.788 | 0.929 | 1.01 | 1.04 | 0.944 | 0.577
NCI-H727 | 0.888 | 1.13 | 0.855 | 0.724 | 0.669 | 0.598 | 0.536 | 0.472 | 0.443 | 0.356 | 0.312 | 0.177 | 0.163 | – | – | – | – | –
NCI-H1944 | – | – | – | – | 0.247 | 0.252 | 0.253 | 0.226 | 0.985 | 0.998 | 0.938 | 0.485 | 0.311 | 0.498 | 0.576 | 0.465 | 0.244 | 0.22
LK-2 | – | – | – | – | 0.181 | 0.206 | 0.16 | 0.182 | 0.719 | 0.752 | 0.659 | 0.443 | 0.21 | 0.365 | 0.278 | 0.282 | 0.276 | 0.132
Calu-6 | 0.954 | 1.06 | 0.954 | 0.658 | – | – | – | – | 0.761 | 0.859 | 0.774 | 0.524 | 0.308 | – | – | – | – | –
NCI-H1395 | – | – | – | – | 0.83 | 0.817 | 0.644 | 0.39 | 1.12 | 1.25 | 1.19 | 0.875 | 0.794 | 0.884 | 1.05 | 0.911 | 0.76 | 0.719
NCI-H650 | 0.95 | 0.755 | 0.836 | 0.622 | 0.823 | 0.688 | 0.373 | 0.185 | – | – | – | – | – | 0.952 | 0.951 | 0.833 | 0.794 | 0.353
NCI-H661 | 0.963 | 0.858 | 0.833 | 0.649 | 0.347 | 0.378 | 0.336 | 0.379 | – | – | – | – | – | 0.886 | 0.916 | 0.814 | 0.663 | 0.354
EBC-1 | 0.6 | 0.548 | 0.514 | 0.304 | – | – | – | – | 0.422 | 0.326 | 0.287 | 0.184 | 0.15 | – | – | – | – | –
NCI-H2342 | – | – | – | – | 0.668 | 0.456 | 0.504 | 0.357 | – | – | – | – | – | 0.811 | 0.849 | 0.708 | 0.638 | 0.668
NCI-H1703 | 0.328 | 0.407 | 0.272 | 0.131 | – | – | – | – | 1.22 | 1.21 | 1.37 | 1.05 | 0.575 | – | – | – | – | –
IA-LM | 0.844 | 0.736 | 0.918 | 0.877 | – | – | – | – | 0.802 | 0.861 | 0.898 | 0.685 | 0.378 | – | – | – | – | –
NCI-H1648 | – | – | – | – | 0.58 | 0.503 | 0.451 | 0.284 | – | – | – | – | – | 0.736 | 0.685 | 0.772 | 0.38 | 0.407
NCI-H522 | – | – | – | – | 0.654 | 0.557 | 0.502 | 0.523 | – | – | – | – | – | 0.848 | 1.21 | 1.12 | 1.04 | 0.774
A549 | – | – | – | – | – | – | – | – | 1.22 | 1.21 | 1.07 | 0.787 | 0.395 | – | – | – | – | –
